# Data published in patent publication US4873236A, “Condensed diazepinones, processes for preparing them and pharmaceutical compositions containing these compounds” (Dr. Karl Thomae GmbH, priority 1986, dated 1989).
# Legend:
# [1] = tested on: muscarinic receptors, bronchi; assay: Receptor bonding test in vivo, bronchi (3H-NMS); set-up: species or system female rats; settings: in vivo binding, i.v., rat, 113 ng/kg 3H-NMS; 30 min
# Method: (§1) For these experiments, female rats with a body weight of about 200 g were used. Before the start of the test the animals were anaesthetised with a dosage of 1.25 g/kg of urethane. The animals were each given the prescribed dosage of test substance by intravenous injection. After 15 minutes, 113 ng/kg of ^3 H-N-methylscopolamine (^3 H-NMS) were administered by the same route. After another 15 minutes the animals were killed and the heart, bronchi and lachrymal glands were removed. These organs were dissolved in Soluene R and the radioactivity was determined. The measurements were assumed to be total bonding. […] ID50 values were determined for the individual organs using these tests.
# salivation = assay: Salivation-inhibiting effect on the rat (pilocarpine); assay type: in vivo, male THOM rats; settings: for ED50: Rattus norvegicus, iv, pilocarpine 2 mg/kg s.c., 50% reduction of saliva volume, read-out: Salivation inhibition (rat) ED50
# Method: The secretion of saliva was triggered by subcutaneous administration of 2 mg/kg of pilocarpine. The saliva was soaked up with blotting paper and the area occupied by the saliva was determined by planimetry every 5 minutes. The dosage of substance which reduced the volume of saliva by 50% was determined graphically.
# [2] = target: T1, muscarinic receptors, heart ventricle (Rattus norvegicus, UniProt P10980); assay: Receptor bonding test in vivo, heart ventricle (3H-NMS); set-up: species or system female rats; settings: iv, 0.5 h, in vivo binding, i.v., 113 ng/kg 3H-NMS, read-out: ID50 Heart Ventricle
# T1 construct: the heart, bronchi and lachrymal glands were removed; from tissue; host or cells: heart (atrium, ventricle) of female rats, labelled in vivo
# T1 sequence (P10980 1-466): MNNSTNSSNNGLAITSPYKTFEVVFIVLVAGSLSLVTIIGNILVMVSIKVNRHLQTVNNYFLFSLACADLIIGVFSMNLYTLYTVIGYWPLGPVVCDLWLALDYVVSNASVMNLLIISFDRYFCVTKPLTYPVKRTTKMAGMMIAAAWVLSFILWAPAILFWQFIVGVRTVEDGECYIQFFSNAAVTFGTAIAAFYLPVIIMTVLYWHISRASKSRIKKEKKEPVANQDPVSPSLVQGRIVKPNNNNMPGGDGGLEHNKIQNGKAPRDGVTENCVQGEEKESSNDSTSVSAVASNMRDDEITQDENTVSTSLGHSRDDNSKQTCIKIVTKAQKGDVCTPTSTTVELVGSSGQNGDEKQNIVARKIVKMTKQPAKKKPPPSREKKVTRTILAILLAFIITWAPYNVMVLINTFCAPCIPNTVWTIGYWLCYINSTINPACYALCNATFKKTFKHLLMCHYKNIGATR
# Method: as §1
# [3] = target: T2, muscarinic receptors, heart atrium (Rattus norvegicus, UniProt P10980); assay: Receptor bonding test in vivo, heart atrium (3H-NMS); set-up: species or system female rats; settings: for potency in the heart (in words): Table V, atrium/ventricle, vs comparison substances; for ED50: iv, 0.5 h, i.v., 113 ng/kg 3H-NMS, read-out: ID50 Heart Atrium
# T2 construct: from tissue; host or cells: heart (atrium, ventricle) of female rats, labelled in vivo
# T2 sequence (P10980 1-466): T1 sequence (P10980 1-466)
# Method: as §1
# M2 (vagal bradycardia) = target: T3, M2 (vagal bradycardia) (Rattus norvegicus, UniProt P10980); assay: M1/M2 selectivity in the rat: inhibition of vagally stimulated bradycardia (M2); assay type: in vivo, male THOM rats; settings: iv, 5 min, i.v., 50% reduction in vagal bradycardia, read-out: M2 activity (rat) ED50
# T3 construct: The bradycardia produced by vagus stimulation; from tissue; host or cells: whole animal (male THOM rats), heart
# T3 sequence (P10980 1-466): T1 sequence (P10980 1-466)
# Method: The method used was described by Hammer and Giachetti (Life Sciences 31, 2991-2998 (1982)). 5 minutes after intravenous injection of increasing doses of the substance, either the right vagus was electrically stimulated (frequency: 25 Hz; pulse width: 2 ms; duration of stimulus: 30 s; number of volts: supramaximal) or 0.3 mg/kg of McN-A-343 was injected intravenously into male THOM rats. The bradycardia produced by vagus stimulation and the increase in blood pressure produced by McN-A-343 were measured.
# [4] = target: T4, muscarinic receptors, heart (Rattus norvegicus, UniProt P10980); assay: Receptor bonding test in vitro, heart (displacement of 3H-N-methylscopolamine); assay type: binding, Sprague-Dawley rats; settings: for IC50: 0.3 nmolar 3H-NMS, 30° C., 45 min, heart
# T4 construct: After removal of the heart and submandibular gland; from tissue; host or cells: whole heart of male Sprague-Dawley rats, homogenate
# T4 sequence (P10980 1-466): T1 sequence (P10980 1-466)
# [5] = target: T5, M1 (rise in blood pressure by McN-A-343) (Rattus norvegicus, UniProt P08482); assay: M1/M2 selectivity in the rat: inhibition of McN-A-343 blood pressure increase (M1); assay type: in vivo, male THOM rats; settings: iv, 5 min, i.v., 50% reduction in blood pressure rise by 0.3 mg/kg McN-A-343, read-out: M1 activity (rat) ED50
# T5 construct: from tissue
# T5 sequence (P08482 1-460): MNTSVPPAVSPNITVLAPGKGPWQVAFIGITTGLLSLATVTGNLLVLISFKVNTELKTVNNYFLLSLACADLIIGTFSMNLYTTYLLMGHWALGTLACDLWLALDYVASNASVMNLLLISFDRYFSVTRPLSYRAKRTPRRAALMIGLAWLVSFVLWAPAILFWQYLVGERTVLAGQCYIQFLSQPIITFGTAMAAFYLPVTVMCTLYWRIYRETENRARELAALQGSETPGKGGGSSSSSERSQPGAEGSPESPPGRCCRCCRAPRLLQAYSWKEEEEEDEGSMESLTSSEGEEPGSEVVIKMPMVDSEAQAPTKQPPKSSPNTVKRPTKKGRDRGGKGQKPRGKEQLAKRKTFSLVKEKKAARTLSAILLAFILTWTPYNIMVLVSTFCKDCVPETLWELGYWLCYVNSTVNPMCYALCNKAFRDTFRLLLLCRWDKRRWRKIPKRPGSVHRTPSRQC
# [6] = target: T6, muscarinic receptors, ileum (Cavia porcellus, UniProt H0W1Z3); assay: Dissociation constants (KB) on ileum, methacholine antagonism; settings: guinea pig ileum, 30 min contact, read-out: KB Ileum (dissociation constant)
# T6 construct: The ileum was removed and incubated in Krebs-Henseleit solution; from tissue; host or cells: isolated ileum of guinea pig
# T6 sequence (H0W1Z3 1-590): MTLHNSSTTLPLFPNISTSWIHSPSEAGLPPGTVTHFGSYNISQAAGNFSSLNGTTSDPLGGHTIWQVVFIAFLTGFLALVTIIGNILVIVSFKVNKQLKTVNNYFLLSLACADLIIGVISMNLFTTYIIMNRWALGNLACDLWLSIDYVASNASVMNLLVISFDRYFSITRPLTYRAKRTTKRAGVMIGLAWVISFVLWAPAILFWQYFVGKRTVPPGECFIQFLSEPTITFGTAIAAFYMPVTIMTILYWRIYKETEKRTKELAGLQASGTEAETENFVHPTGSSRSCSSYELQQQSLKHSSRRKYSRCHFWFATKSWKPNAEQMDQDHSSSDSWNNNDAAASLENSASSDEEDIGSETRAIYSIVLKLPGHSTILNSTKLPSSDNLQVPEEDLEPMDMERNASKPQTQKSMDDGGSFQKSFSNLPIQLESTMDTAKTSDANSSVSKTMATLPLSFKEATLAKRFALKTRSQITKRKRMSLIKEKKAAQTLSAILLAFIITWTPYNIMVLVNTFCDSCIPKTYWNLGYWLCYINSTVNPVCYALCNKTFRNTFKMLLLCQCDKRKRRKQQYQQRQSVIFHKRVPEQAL
# Method: Dissociation constants (KB values) were determined in vitro on the guinea pig ileum and spontaneously beating atrium. The ileum was removed and incubated in Krebs-Henseleit solution in an organ bath. Contractions were produced by means of increasing concentrations of methacholine (M) so that a full concentration-activity curve could be plotted.
Compound,ID50 Bronchi [1] [mg/kg],ED50 (salivation) [mg/kg],ED50 [2] [mg/kg],potency in the heart (in words) [3],"ED50 ([3]; in vivo binding, rat) [mg/kg]",ED50 (M2 (vagal bradycardia)) [mg/kg],IC50 [4] [nM],ED50 [5] [mg/kg],Kb [6] [nM],"Ratio of salivation inhibition to M2 activity (salivation; rat, i.v. ED50 values)","Ratio of ID50 lachrymal gland to ID50 atrium ([3]; in vivo binding, rat, 30 min)",Selectivity factor: Ratio IC50 submandibular gland to IC50 heart [4]
"CCCN(CCC)CC1CCCCN1CCNC(=O)N1c2ccccc2C(=O)Nc2cccnc21 (stereo not drawn) [Substance A, 5,11-dihydro-11-[[[2-[2-[(dipropylamino)methyl]-piperidin-1-yl]ethyl]amino]carbonyl]-6H-pyrido[2,3-b][1,4]benzodiazepin-6-one]",0.7,0.458,0.15,decisive improvement in potency compared with substances Y and Y in the heart,0.2,0.019,20,0.562,25.7,–,–,–
"CCN(CC)CC1CCCCN1CCNC(=O)N1c2ccccc2NC(=O)c2csc(C)c21 (stereo not drawn) [Substance B, 4-[[[2-[2-[(diethylamino)methyl]-piperidin-1-yl]ethyl]amino]carbonyl]-4,9-dihydro-3-methyl-10H-thieno[3,4-b][1,5]benzodiazepin-10-one]",0.15,0.078,0.006,decisive improvement in potency compared with substances Y and Y in the heart,0.025,0.008,3,0.033,3.63,9.75,> 40,5
"CCN(CC)CC1CCCCN1CCNC(=O)N1c2cc(Cl)ccc2C(=O)Nc2cccnc21 (stereo not drawn) [Substance C, 9-chloro-11-[[[2-[2-[(diethylamino)methyl]-piperidin-1-yl]ethyl]amino]carbonyl]-5,11-dihydro-6H-pyrido[2,3-b][1,4]benzodiazepin-6-one]",3.0,1.4,0.09,decisive improvement in potency compared with substances Y and Y in the heart,0.2,0.058,30,0.36,83.2,–,–,–
